Where “and” joins values, the source holds several entries; their conditions need not be identical. Equal values may be shown once.
What was measured:
[1] = target: Muscarinic acetylcholine receptors; M1 & M2 (Homo sapiens) (UniProt P11229+P08172); assay: Ratio of binding affinity to M1 receptor compared to that of M2 receptor; assay type: protein assay
[2] = target: T1, Muscarinic acetylcholine receptor M1 (Homo sapiens, UniProt P11229); assay: Binding affinity towards the cloned human Muscarinic acetylcholine receptor M1
T1 sequence (P11229 whole entry): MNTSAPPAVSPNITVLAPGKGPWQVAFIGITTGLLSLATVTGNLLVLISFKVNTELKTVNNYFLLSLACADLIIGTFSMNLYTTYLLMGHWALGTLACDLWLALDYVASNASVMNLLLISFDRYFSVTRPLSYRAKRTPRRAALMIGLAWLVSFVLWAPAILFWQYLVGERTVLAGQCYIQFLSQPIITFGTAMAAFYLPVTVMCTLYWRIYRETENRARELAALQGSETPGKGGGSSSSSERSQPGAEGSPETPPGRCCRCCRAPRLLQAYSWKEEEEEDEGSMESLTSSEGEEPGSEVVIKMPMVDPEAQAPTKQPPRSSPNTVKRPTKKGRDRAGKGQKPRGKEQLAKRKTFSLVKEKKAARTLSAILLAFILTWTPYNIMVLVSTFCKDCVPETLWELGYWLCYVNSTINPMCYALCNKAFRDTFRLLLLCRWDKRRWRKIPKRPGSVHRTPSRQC

[3] = target: T2, Muscarinic acetylcholine receptor M2 (Homo sapiens, UniProt P08172); assay: Binding affinity towards the cloned human Muscarinic acetylcholine receptor M2
T2 sequence (P08172 whole entry): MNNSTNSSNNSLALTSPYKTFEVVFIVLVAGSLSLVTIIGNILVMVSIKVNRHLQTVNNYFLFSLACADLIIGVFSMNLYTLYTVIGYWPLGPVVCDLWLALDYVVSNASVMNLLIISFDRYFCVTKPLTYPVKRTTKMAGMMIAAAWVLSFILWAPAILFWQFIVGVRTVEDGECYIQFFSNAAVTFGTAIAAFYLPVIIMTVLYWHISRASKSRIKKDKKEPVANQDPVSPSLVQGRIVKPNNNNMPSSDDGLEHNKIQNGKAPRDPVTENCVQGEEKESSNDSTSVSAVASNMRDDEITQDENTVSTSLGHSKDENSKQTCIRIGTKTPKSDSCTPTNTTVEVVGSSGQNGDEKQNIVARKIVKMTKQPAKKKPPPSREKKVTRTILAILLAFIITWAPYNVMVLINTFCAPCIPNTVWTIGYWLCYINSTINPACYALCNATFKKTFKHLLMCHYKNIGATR

Compound | Ratio [1] | Ki [2] | Ki [3]
COc1ccc([S@@+]([O-])c2ccc(C(C#N)N3CCN(C4CCCCC4)CC3)cc2)cc1 (stereo in doubt; 1) [listing 1 of 2 here] | 40 | – | –
CC(c1ccc(S(=O)(=O)c2ccc(C(C)(C)C)cc2)cc1)N1CCN(C2CCCCC2)CC1 (stereo unspecified) | 2.6 | 85 nM | 33 nM
CCOC(=O)N1CCN(C(C)c2ccc(S(=O)(=O)c3ccccc3)cc2)CC1 (stereo unspecified) | 1.5 | 200 nM | 135 nM
CC(c1ccc(S(=O)(=O)c2ccccc2)cc1)N1CCN(C)CC1 (stereo unspecified) | 3 | 96 nM | 34 nM
CC(c1ccc(S(=O)(=O)c2ccccc2)cc1)N1CCNCC1 (stereo unspecified) | 1.6 | 57 nM | 37 nM
COc1ccc([S+]([O-])c2ccc(C(C#N)N3CCN(C4CCCCC4)CC3)cc2)cc1 (stereo unspecified) | 14 | 117 nM | 8 nM
COc1ccc([S@@+]([O-])c2ccc(C(C#N)N3CCN(C4CCCCC4)CC3)cc2)cc1 (single isomer, unassigned; form 1) [listing 1 of 2 here] | – | 140 nM and 253 nM | 9 nM and 17 nM
COc1ccc([S@@+]([O-])c2ccc(C(C#N)N3CCN(C4CCCCC4)CC3)cc2)cc1 (single isomer, unassigned; form 1) [listing 2 of 2 here] | 15 | – | –
COc1ccc([S@@+]([O-])c2ccc(C(C#N)N3CCN(C4CCCCC4)CC3)cc2)cc1 (single isomer, unassigned; form 2) [listing 1 of 2 here] | 22 and 9 | – | –
CC(c1ccc(S(=O)(=O)c2ccccc2)cc1)N1CCN(C2CCCCC2)CC1 (stereo unspecified) | 6 | 1.3 nM | 0.2 nM
COc1ccc([S+]([O-])c2ccc(C(C)N3CCN(C4CCCCC4)CC3)cc2)cc1 (stereo unspecified) | 6 | – | –
Cc1ccc(S(=O)(=O)c2ccc(C(C)N3CCN(C4CCCCC4)CC3)cc2)cc1 (stereo unspecified) | 14 | 11 nM | 0.8 nM
CC(c1ccc(S(=O)(=O)c2ccccc2)cc1)N1CCN(CCO)CC1 (stereo unspecified) | 3 | 77 nM | 26 nM
CC(c1ccc(S(=O)(=O)c2ccccc2)cc1)N1CCN(c2ccccc2)CC1 (stereo unspecified) | 1 | 4770 nM | 4600 nM
CC(c1ccc(S(=O)(=O)c2ccc(S(C)(=O)=O)cc2)cc1)N1CCN(C2CCCCC2)CC1 (stereo unspecified) | 3 | 106 nM | 36 nM
COc1ccc(S(=O)(=O)c2ccc(C(C)N3CCN(C4CCCCC4)CC3)cc2)cc1 (stereo unspecified) | 10 | 6 nM | 0.6 nM
COc1ccc([S+]([O-])c2ccc(C(C3CCCCC3)N3CCN(C4CCCCC4)CC3)cc2)cc1 (stereo unspecified) | 3 | 52 nM | 17 nM
COc1ccc([S@@+]([O-])c2ccc(C(C#N)N3CCN(C4CCCCC4)CC3)cc2)cc1 (single isomer, unassigned; form 2) [listing 2 of 2 here] | – | 83 nM and 180 nM | 3.8 nM and 20 nM
COc1ccc([S@@+]([O-])c2ccc(C(C#N)N3CCN(C4CCCCC4)CC3)cc2)cc1 (stereo in doubt; 1) [listing 2 of 2 here] | – | – | 2.7 nM
COc1ccc([S+]([O-])c2ccc(C(C(N)=O)N3CCN(C4CCCCC4)CC3)cc2)cc1 (stereo unspecified) | 6 | 242 nM | 40 nM
COc1ccc([S+]([O-])c2ccc(C(N3CCN(C4CCCCC4)CC3)C(F)(F)F)cc2)cc1 (stereo unspecified) | 5 | 23 nM | 5 nM

Reference: ChEMBL document CHEMBL1132769, “Diphenyl sulfoxides as selective antagonists of the muscarinic M2 receptor” (Bioorg Med Chem Lett, 2000)
